Measured values as given in US20010007657A1, “Compositions and methods for manipulating glial progenitor cells and treating neurological deficits” (priority 1997, published 2001).
“Also recorded” adds a separate entry of the source. Each block holds one molecule with its values, some of them ahead of it.

How the values were obtained:
TGFα mRNA = assay: In situ hybridization of TGFα mRNA after nigral 6-OHDA lesion and/or striatal TGFα infusion; type: in vivo, rat
Source text: (§1) Adult male Sprague-Dawley rats weighing 250-300 grams were obtained from Simonsen (Gilroy, Calif.) and assigned to one of five treatment groups: (1) striatal TGFα infusion, nigral 6-OHDA lesion (hereafter, “lesion”); (2) TGFα infusion, no lesion; (3) artificial cerebrospinal (aCSF) infusion, lesion; (4) aCSF infusion, no lesion; (5) no infusion, no lesion. Four to eight animals were used per experimental group. The animals were monitored after each surgical procedure until fully recovered and maintained at all other times in a temperature and humidity controlled vivarium.
(§2) Rats were anesthetized with 8 mg xylazine and 100 mg ketamine per kilogram body weight. […] The success and extent of 6-OHDA lesions were monitored by tyrosine hydroxylase (TH) mRNA in situ hybridization in the midbrain. TH is the rate-limiting enzyme in the dopamine synthetic pathway and is a common marker for dopamine-producing neurons. One animal with an incomplete lesion (retaining significant numbers of nigral TH-IR cells) was excluded from the study and is not included in the total number of animals.
(§3) Osmotic minipumps (model 2002, Alzet, Inc.) were implanted four to five weeks post-lesion. […] The minipump itself was placed subcutaneously in the interscapular region.
(§4) At the end of the infusion period, animals were sacrificed by decapitation. Their brains were quickly removed, frozen in isopentane at −20° C., and stored at −70° C. Coronal cryostat sections were cut at 20 μm and thaw-adhered to Vectabond™ (Vector Labs, Inc.) coated slides in ordered anterior-to-posterior rows. The sections were postfixed with 4% paraformaldehyde in 0.1 M phosphate buffer (pH 7.4) for one hour, rinsed in phosphate buffer and air dried. Sections were stored with desiccant at −20° C. until processed.
TGFα mRNA probes were generated from a 550 nucleotide XbaI/BamHI cDNA fragment from the 5′ end of rat TGFα subcloned into pGEM 7Zf (Promega, Inc.). Antisense and sense probes were transcribed with SP6 and T7 polymerases, respectively. […]

EGF receptor mRNA = assay: In situ hybridization of EGF receptor mRNA after nigral 6-OHDA lesion and/or striatal TGFα infusion; type: in vivo, rat
Source text: as §1, §2, §3, §4
TGFα mRNA probes were generated from a 550 nucleotide XbaI/BamHI cDNA fragment from the 5′ end of rat TGFα subcloned into pGEM 7Zf (Promega, Inc.). Antisense and sense probes were transcribed with SP6 and T7 polymerases, respectively. Rat EGF receptor mRNA probes were produced from a 718 base pair BamHI/SphI insert from the 5′ end of the gene in pGEM 7Zf. Probes for rat TH were created using the 1.2 kb BamHI/EcoRI fragment subcloned into pGEM 7Zf. Antisense subclones for EGF receptor and TH were transcribed with T7 polymerase. Sense subclones for EGF receptor and TH were transcribed with SP6 polymerase. All probes were radiolabeled by transcription in the presence of [^35S]UTP (NEN Research Products, Inc.).
In situ nucleic acid hybridization was performed according to the method described by Simmons et al. 1989, supra). Parallel sections from experimental and control animals were hybridized overnight at 65° C. with sense or antisense probes at a concentration of 10^7 cpm/ml.

[1] = tested on: neural precursor cells of the subependymal zone; assay: Periventricular cellular expansion and striatal ridge formation (thionin, silver staining, immunohistochemistry); type: in vivo, rat; details: for (incidence of striatal ridge) / Expansion (incidence of cellular expansion along ventricle): midstriatal infusion 0.5 μg/day
Procedure: Adult male Sprague-Dawley rats weighing 250-300 grams were used throughout the study. Twenty-four animals received standard midstriatal infusions of rat TGFα (0.5 μg/day; Sigma Chemical Co.). Another 26 rats received either artificial cerebrospinal fluid (“aCSF”) or no infusion. A subset of animals in the standard TGFα infusion group and the control group received stereotaxic 6-OHDA injections into the substantia nigra 48 hours after the infusions were begun. Animals used in this portion of the study were classified into six groups according to their infusion-lesion combination, as follows: TGFα infusion, lesion (n=13); TGFα infusion, no lesion (n=11); aCSF infusion, lesion (n=12); aCSF infusion, no lesion (n=9); no infusion, lesion (n=1); no infusion, no lesion (n=4).
Additional animals received TGFα infusions into other regions of striatum, the lateral ventricle, cerebral cortex, or the septum. Four more animals (two per group) received midstriatal TGFα infusions at one-half or one-tenth the standard dose. Also, two animals received midstriatal infusions of epidermal growth factor (EGF) instead of TGFα. The EGF administered in these rats was at the standard 0.5 μg/day dose. All of the animals in these extra groups were lesioned. Rats in all of the experiments were typically perfused one to 16 days postlesion (3-18 days of infusion). […] Brain sections were prepared and stained using various immunocytochemical and histochemical techniques.
Rats were anesthetized with 8 mg xylazine and 100 mg ketamine/kg. Infusions of TGFα were provided up to 18 days by Alzet osmotic minipump (2002). The minipumps were filled to about 200 μl with either aCSF for control animals or 20 μg TGFα in 400 μl of aCSF (50 μg/ml) for experimental animals. Under sterile conditions, the infusion cannula was positioned to stereotaxic coordinates (+1.2 A/P; +2.7 M/L; −6.0 D/V) based on Bregma (Paxinos and Watson, The Rat Brain in Stereotaxic Coordinates, Academic Press, San Diego, 1986) and cemented to the top of the skull with dental cement. The infusate was delivered via cannula at approximately 0.5 μl/hour. Some additional control animals received infusions either into the lateral ventricle, the overlying cortex, or other areas.
Forty-eight hours after the minipump implant, rats were anesthetized as above. A chilled 4.8 mg/ml solution of 6-OHDA HCl was prepared immediately prior to injection. […] A 6-8 μl volume was injected at a rate of 1 μl/minute.
Animals were perfused with 500 ml of 4% paraformaldehyde in 0.1 M phosphate buffered saline (PBS; pH 7.4) one to 16 days postlesion and their brains placed into 20% sucrose. The next day, the brains were frozen in isopentane at −20° C. Forty-micron coronal sections were then cut on a freezing microtome into 2% paraformaldehyde in 0.1 M PBS. Continuous sections were taken through the striatum and substantia nigra-VTA. Representative sections were taken through the rest of the brain.
Microtomed brain sections for Nissl staining were mounted onto gelatin-coated slides and allowed to dry overnight. They were then dehydrated and rehydrated through ethanol baths, and placed in Thionin solution for approximately four minutes. The sections were dehydrated through the series of ethanol baths, cleared in successive Histoclear™ washes, and coverslipped. Section were viewed under light microscopy and photographed with Technical Pan Film™ (Kodak, Inc.) at ISO 100 (HC-110 processing for six minutes).
Degenerating fibers and cells of the ridge were labeled using a modification to the Nauta staining method, similar to Procedure I of Fink-Heimer (Giolli and Karamanlidis, In: Neuroanatomical Research Techniques, R. T. Robertson, Ed., pp. 211-240, Academic Press, New York, 1978).

[2] = tested on: stem and neuroprogenitor cells in the SVZ; assay: Morphological studies of proliferation, directed migration and differentiation induction (Example 3); type: in vivo, rat
Source text: In situ hybridization histochemistry: TGFα mRNA probes were generated from a 550 nucleotide XbaI/BamHI cDNA fragment from the 5′ end of rat TGFα, subcloned into pGEM 7Zf (Promega, Inc). Antisense and sense probes were transcribed with SP6 and T7 polymerases, respectively. Rat EGF receptor mRNA probes were produced from a 718 base pair BamHI/SphI insert from the 5′ end of the gene in pGEM 7Zf. Probes for rat TH were created using the […] BamHI/EcoRI fragment subcloned into pGEM 7Zf. Antisense subclones for EGF receptor and TH were transcribed with T7 polymerase. Sense subclones for EGF receptor and TH were transcribed with SP6 polymerase. All probes were radiolabeled by transcription in the presence of [35S]UTP (NEN Research, Inc). In situ nucleic acid hybridization was performed according to Simmons (1989) J. Histochem. 12:169-181). Parallel sections from experimental and control animals were hybridized overnight at 65° C. with sense or antisense probes at a concentration of […]. Adjacent sections from the same animals were hybridized to each of the probes so that direct comparison could be made of their anatomical distributions. […] After successful development of the autoradiography film, analysis and quantitation was done using MCID (Imaging Research, Inc).

[3] = tested on: neural precursor cells of the subependymal zone; assay: Periventricular cellular expansion and striatal ridge formation (thionin, silver staining, immunohistochemistry); type: in vivo, rat; details: three months after the TGFα infusion pump was removed
[4] = tested on: stem and neuroprogenitor cells in the SVZ; assay: Morphological studies of proliferation, directed migration and differentiation induction (Example 3); type: in vivo, rat; remark: listed apart in the source
[5] = midstriatal EGF infusion 0.5 μg/day, lesioned animals
[6] = intracerebroventricular (ICV) infusion ipsilateral to lesion, two weeks
[7] = lower doses of TGFα (one-half or one-tenth the standard dose), lesioned
[8] = infusion into the lateral ventricle, 6-OHDA-lesioned

Molecule: Cl.NCCc1cc(O)c(O)cc1O [6-OHDA, 6-hydroxydopamine HCl, reference compound]
- contralateral TGFα mRNA hybridization (TGFα mRNA; unilateral nigral 6-OHDA lesion): no effect
- reduction of TGFα mRNA hybridization in the ipsilateral striatum (TGFα mRNA; unilateral nigral 6-OHDA lesion, several weeks post-lesion): 25%
- EGF receptor hybridization in the ipsilateral SN-VTA (EGF receptor mRNA; 6-OHDA lesion, midbrain): abolished
- striatal and subependymal EGF receptor hybridization (EGF receptor mRNA; 6-OHDA lesioned animals compared to normal animals): unchanged

Molecule: EGF: epidermal growth factor, infused midstriatally instead of TGFα at 0.5 μg/day (NSDSECPLSHDGYCLHDGVCMYIEALDKYACNCVVGYIGERCQYRDLKWWELR; Epidermal growth factor; UniProt P01133 971-1023, looked up)
- cellular expansion along the ventricle [1, 5]: induced the cellular expansion along the ventricle
- formation of the striatal ridge [1, 5]: did not induce formation of the striatal ridge

- rats with ridge of dense EGF receptor mRNA hybridization in ipsilateral striatum (EGF receptor mRNA; TGFα infusion/nonlesion group): one of six
- rats with ridge of dense EGF receptor mRNA hybridization in ipsilateral striatum (EGF receptor mRNA; combined TGFα infusion/6-OHDA lesion group): five of the six
Molecule: TGFα: transforming growth factor alpha polypeptide, EGF-family growth factor that binds the EGF receptor; infused into rat brain
- TGFα mRNA hybridization in the infused striatum (TGFα mRNA; unlesioned animals, striatal TGFα infusion two weeks, vs contralateral or normal striata): unchanged
- EGF receptor mRNA hybridization in the ipsilateral subependymal region (EGF receptor mRNA; striatal TGFα infusion two weeks, lesioned and unlesioned): dramatically increased; also recorded: approximately doubled
- difference in distance between lateral extents of the ridges and the ventricle wall, 12 vs 16 days of infusion ([1]; 6-OHDA lesion, midstriatal TGFα): approximately 1.6 mm
- distance of ventral portion of the ridge from the ventricle wall ([1]; 12 days infusion, 6-OHDA lesion, midstriatal TGFα): ≤ 400 μm
- distance of ventral portion of the ridge from the ventricle ([1]; 16 days infusion, 6-OHDA lesion, midstriatal TGFα): up to two mm
- nestin immunostaining of the ridge ([1]; TGFα infusion fourteen days, lesioned): intensely stained
- GFAP immunostaining of striatal ridge and cellular expansion ([1]; TGFα-induced ridge, two weeks of infusion): failed to stain
- expansion of cells along the ipsilateral ventricle ([1]; cortical infusions slightly penetrating the corpus callosum, two weeks, lesioned): stimulated expansion of cells
- cell density along the lateral ventricle ([1]; dorsal cortical infusions not penetrating the corpus callosum, two weeks, lesioned): no discernable effect
- buildup of cells in the adjacent ventricular wall [1, 6]: stimulated the buildup of cells
- formation of the striatal ridge [1, 6]: did not induce formation of the striatal ridge
- buildup of cells along the ventricle ipsilateral to the infusion (thionin) ([1]; intrastriatal TGFα infusions of six days or more): dramatic buildup of cells
- cellular expansion and ridge formation [1, 7]: induced both the cellular expansion and ridge formation
- number of cells in expansion and ridge (qualitative) [1, 7]: decreased
- (incidence of striatal ridge) ([1]; 6-OHDA lesion, n=13): 92%
- Expansion (incidence of cellular expansion along ventricle) ([1]; 6-OHDA lesion, n=13): 100%
- (incidence of striatal ridge) ([1]; no lesion, n=11): 27%
- Expansion (incidence of cellular expansion along ventricle) ([1]; no lesion, n=11): 100%
- formation of septal ridges ([1]; septal and some striatal infusions, two weeks, lesioned): stimulated the formation of septal ridges
- expression of EGFr mRNA in the SVZ ([2]; 6-OHDA lesion and TGF alpha infusion): significant increase
- expression of EGFr mRNA in the SVZ ([2]; TGF alpha infusion, no 6-OHDA lesion): significant increase
- apomorphine-induced rotations (6OHDA lesioned animals; animals receiving the TGFα infusions): significant reduction
- improvement in rotational behavior, TGFα versus aCSF-treated control animals (6OHDA lesioned animals; infusion 14 days after 6-OHDA lesion, 14-day striatal infusion, p<0.05): 38%
- animals not exhibiting rotational behavioral asymmetry following apomorphine (6OHDA lesioned animals; infusion contemporaneous with 6-OHDA lesion, entire four-week period): 10 of the 11
- other motor behaviors (exploratory, consummatory behavior) (6OHDA lesioned animals; rat, in vivo): did not appear to be adversely affected
- persistence of the ridge in the striatum [3]: still prominent
- effectiveness in inducing ridge formation ([4]; 10 ug dose): minimally less effective
- thickening of the SVZ ([4]; 4 to 6 days of continuous infusion, lesioned animals): pronounced thickening of the SVZ
- effectiveness in inducing ridge formation ([4]; 50 and 100 ug dose): equally effective
- 5′BrdU incorporation into the SVZ ([4]; first three days of infusion): massively increased incorporation
- nestin staining of SVZ and ridge cells ([4]; from the fourth day of infusion): nestin-positive
- SVZ proliferation [4, 8]: temporary proliferation of SVZ cells
- migratory ridge [4, 8]: no migratory ridge
- SVZ proliferation ([4]; infusion into the septum): massive proliferation of the SVZ
- β-III tubulin (neuronal lineage) staining ([4]; starting at 14 days of infusion): β-III tubulin positive cells were seen
- tyrosine hydroxylase (TH) positive cells in the striatum ([4]; third and fourth week of infusion, 6-OHDA-lesioned): increasing numbers of TH positive cells
